Reference: patent US5776929A, “Benzodiazepine derivative” (Shionogi & Co., Ltd., priority 1993, dated 1998)
pIC50: −log10 of the molar value. Where two headings read alike, the source gives them in different places.

Legend:
gastrin receptor = target: T1, gastrin receptor (Cavia porcellus, UniProt H0VZC5); test: Gastrin receptor antagonism, displacement of 125I-labeled gastrin, gastric (fundic) gland cells; type: binding, guinea pig (male Hartley)
T1 construct: stomach was extracted from each animal immediately, from which gastric glands were prepared; from tissue; host or cells: gastric (fundic) glands of male Hartley guinea pigs
T1 sequence (H0VZC5 1-426): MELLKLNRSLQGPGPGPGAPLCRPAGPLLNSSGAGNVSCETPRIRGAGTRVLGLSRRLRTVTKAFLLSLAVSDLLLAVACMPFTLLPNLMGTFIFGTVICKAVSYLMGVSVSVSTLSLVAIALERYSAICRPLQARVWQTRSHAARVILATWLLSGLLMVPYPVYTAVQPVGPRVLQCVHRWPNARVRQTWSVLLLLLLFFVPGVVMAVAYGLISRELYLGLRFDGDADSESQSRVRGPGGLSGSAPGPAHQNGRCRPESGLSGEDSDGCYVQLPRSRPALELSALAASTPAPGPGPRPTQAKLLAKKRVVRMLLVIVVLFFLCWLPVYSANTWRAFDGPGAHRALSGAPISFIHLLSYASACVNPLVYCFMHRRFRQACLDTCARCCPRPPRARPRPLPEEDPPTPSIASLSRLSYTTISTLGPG
Description: (§1) Male Hartley guinea pig (450-600 g) or male ddY mouse (24-30 g) were used.
(1) Gastrin Receptor Antagonism
Preparation of gastric glands:
Male Hartley guinea pigs (450-600 g) were killed by bleeding and stomach was extracted from each animal immediately, from which gastric glands were prepared.
Preparation of test compounds and procedures of displacing assay
A 1M solution of a compound to be tested in DMSO is prepared and diluted with 50% DMSO to obtain a ten-fold dilution series.
The mixture is incubated for 30 min at 25° C., centrifuged at 2000 rpm for 5 min and the supernatant is removed by aspiration. To the pellet is added ice-cooled incubation buffer and mixed gently, followed by an immediate centrifugation and removal of the supernatant by aspiration. The radioactivity is counted on gamma counter. The same procedure was repeated using 50% DMSO solution or human gastrin I (final concentration, 2 μM) instead of a solution of test compound so as to obtain the control value regarding total binding or the value regarding non-specific binding, respectively. […]
(§2) specific binding of control=total binding (cpm)-non-specific binding (cpm); and specific binding of test compound=[…]-non-specific binding (cpm).

CCK-B receptor = target: T2, CCK-B receptor (Mus musculus, UniProt P56481); test: CCK-B receptor antagonism, displacement of [3H]CCK-8, cerebral cortex crude membrane; type: binding, mouse (male ddY)
T2 construct: crude membrane specimen from mouse cerebral cortex; from tissue; host or cells: cerebral cortex of male ddY mice, crude membranes
T2 sequence (P56481 1-453): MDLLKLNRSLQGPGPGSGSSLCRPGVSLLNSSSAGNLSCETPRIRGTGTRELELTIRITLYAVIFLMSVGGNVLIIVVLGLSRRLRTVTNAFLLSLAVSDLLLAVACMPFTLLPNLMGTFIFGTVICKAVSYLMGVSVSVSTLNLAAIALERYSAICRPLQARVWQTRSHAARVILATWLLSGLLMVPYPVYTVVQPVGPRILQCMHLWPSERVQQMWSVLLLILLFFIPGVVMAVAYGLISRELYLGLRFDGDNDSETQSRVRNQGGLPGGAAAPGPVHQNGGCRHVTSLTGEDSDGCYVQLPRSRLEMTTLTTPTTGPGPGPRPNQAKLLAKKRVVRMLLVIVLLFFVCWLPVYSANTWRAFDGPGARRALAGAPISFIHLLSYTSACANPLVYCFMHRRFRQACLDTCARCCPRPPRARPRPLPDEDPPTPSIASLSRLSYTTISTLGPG
Description: as §1
(§3) (2) CCK-A Receptor Antagonism and CCK-B Receptor Antagonism
(§4) Preparation of CCK receptor preparations
(§5) Male ddY mice (24 to 30 g) were killed by decapitation and cerebral cortex (CCK-B) and pancreas (CCK-A) were extracted immediately. Each of cerebral cortex and pancreas was mixed with 50 mM Tris-HCl buffer (pH 7.4) and homogenized with a teflon-glass homogenizer and polytron homogenizer to obtain crude membrane specimens.
(§6) Preparation of test compounds and procedures of displacing assay A 1M solution of a compound to be tested in DMSO is prepared and diluted with 50% DMSO to obtain a ten-fold dilution series.
(§7) The reaction is initiated by the addition of crude membrane specimen to solutions of different concentration each containing [^3 H]CCk-8 (final concentration, 1 nM). The mixture is incubated for 90 min at 25° C., filtered through glass filter with aspiration and washed with a cooled 50 mM Tris buffer. After the addition of Aquazol-2 cocktail the radioactivity is counted. The same procedure was repeated using 50% DMSO solution or Ceruletide (final concentration, 1 μM) instead of a solution of test compound so as to obtain the control value regarding total binding or the value regarding non-specific binding, respectively. […]
as §2

CCK-A receptor = target: T3, CCK-A receptor (Mus musculus, UniProt O08786); test: CCK-A receptor antagonism, displacement of [3H]CCK-8, pancreas crude membrane; type: binding, mouse (male ddY)
T3 construct: crude membrane specimen from mouse pancreas; from tissue; host or cells: pancreas of male ddY mice, crude membranes
T3 sequence (O08786 1-436): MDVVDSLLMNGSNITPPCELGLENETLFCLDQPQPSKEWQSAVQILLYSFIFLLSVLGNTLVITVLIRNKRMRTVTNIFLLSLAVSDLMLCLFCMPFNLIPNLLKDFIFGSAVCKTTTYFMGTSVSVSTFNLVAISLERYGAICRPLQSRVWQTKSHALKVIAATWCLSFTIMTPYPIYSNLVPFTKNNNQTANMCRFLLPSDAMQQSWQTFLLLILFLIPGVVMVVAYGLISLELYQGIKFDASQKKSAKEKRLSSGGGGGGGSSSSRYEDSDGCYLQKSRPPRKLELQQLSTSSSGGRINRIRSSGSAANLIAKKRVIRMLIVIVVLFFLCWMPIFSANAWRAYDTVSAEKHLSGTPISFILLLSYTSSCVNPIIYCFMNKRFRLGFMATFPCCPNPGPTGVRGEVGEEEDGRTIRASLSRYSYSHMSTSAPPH
Description: as §1, §3, §4, §5, §6, §7, §2

[1] = guinea pig gastric glands, 125I-gastrin 0.2 nM, 30 min, 25 °C, read-out: Receptor Gastrin (IC50)
[2] = mouse cerebral cortex membrane, [3H]CCK-8 1 nM, 90 min, 25 °C, read-out: Receptor CCK-B (IC50)
[3] = mouse pancreas membrane, [3H]CCK-8 1 nM, 90 min, 25 °C, read-out: Receptor CCK-A (IC50)

pIC50 (gastrin receptor; [1])	pIC50 (CCK-B receptor; [2])	pIC50 (CCK-A receptor; [3])	SMILES	pIC50 (gastrin receptor)	pIC50 (CCK-B receptor)	pIC50 (CCK-A receptor)
7.60	6.36	5.49	CCOC(=O)c1cccc(NC(=O)NC2C(=O)N(CC(=O)N3CCCC3)c3ccccc3N(CC(=O)N3CCCC3)C2=O)c1 [Compound 18-i, 1,5-Bis-(pyrrolidinocarbonylmethyl)-3-(N'-(m-(carboethoxy)phenyl)ureido)-1H-1,5-benzodiazepine-2,4(3H,5H)-dione]	–	–	–
7.19	6.42	5.68	O=C(CN1C(=O)C(NC(=O)Nc2cccc(COC(=O)NCCCC(=O)OCc3ccccc3)c2)C(=O)N(CC(=O)NC2CC2)c2ccccc21)NC1CC1 [Compound 10c, 1,5-Bis-(cyclopropylcarbamoylmethyl)-3-(N'-(3-(3-(benzoyloxycarbonyl)propylcarbamoyloxymethyl)-phenyl)ureido)-1H-1,5-benzodiazepine-2,4 (3H,5H)-dione]	–	–	–
7.74	7.44	5.73	O=C(O)CCCNC(=O)OCc1cccc(NC(=O)NC2C(=O)N(CC3CC3)c3ccccc3N(CC3CC3)C2=O)c1 [Compound 11o, 1,5-Bis-(cyclopropylmethyl)-3-(N'-(3-(3-(carboxy)propylcarbamoyloxymethyl)phenyl)ureido)-1H-1,5-benzodiazepine-2,4(3H,5H)-dione]	–	–	–
8.15	8.70	6.54	COC(=O)CCCNC(=O)OCc1cccc(NC(=O)NC2C(=O)N(CC(=O)C3CCCC3)c3ccccc3N(CC(=O)C3CCCC3)C2=O)c1 [Compound 9i, 1,5-Bis-(cyclopentylcarbonylmethyl)-3-(N'-(3-(3-(carbomethoxy)propylcarbamoyloxymethyl)phenyl)ureido)-1H-1,5-benzodiazepine-2,4(3H,5H)-dione]	–	–	–
7.51	7.11	5.41	COC(=O)CCCNC(=O)OCc1cccc(NC(=O)NC2C(=O)N(CC3CC3)c3ccccc3N(CC3CC3)C2=O)c1 [Compound 9o, 1,5-Bis-(cyclopropylmethyl)-3-(N'-(3-(3-(carbomethoxy)propylcarbamoyloxymethyl)phenyl)ureido)-1H-1,5-benzodiazepine-2,4(3H,5H)-dione]	–	–	–
8.10	6.89	5.68	COC(=O)CCCNC(=O)OCc1cccc(NC(=O)NC2C(=O)N(CC(=O)N3CCCC3)c3ccccc3N(CC(=O)N3CCCC3)C2=O)c1 [Compound 9a, 1,5-Bis-(pyrrolidinecarbonylmethyl)-3-(N'-(3-(3-(carbomethoxy)propylcarbamoyloxymethyl)phenyl)ureido)-1H-1,5-benzodiazepine-2,4(3H,5H) -dione]	–	–	–
8.22	7.42	6.10	O=C(O)CCCNC(=O)OCc1cccc(NC(=O)NC2C(=O)N(CC(=O)c3ccco3)c3ccccc3N(CC(=O)c3ccco3)C2=O)c1 [Compound 11f, 1,5-Bis-(2-furylcarbonylmethyl)-3-(N'-(3-(3-(carboxy)propylcarbamoyloxymethyl)phenyl)ureido)-1H-1,5-benzodiazepine-2,4(3H,5H)-dione]	–	–	–
8.22	7.96	> 7.00	COC(=O)CCCNC(=O)OCc1cccc(NC(=O)NC2C(=O)N(CC(=O)c3ccccc3C)c3ccccc3N(CC(=O)c3ccccc3C)C2=O)c1 [Compound 9d, 1,5-Bis-(o-methylphenacyl)-3-(N'-(3-(3-(carbomethoxy)propylcarbamoyloxymethyl)phenyl)ureido)-1H-1,5-benzodiazepine-2,4(3H,5H)-dione]	–	–	–
8.15	7.21	5.85	COC(=O)CCCNC(=O)OCc1cccc(NC(=O)NC2C(=O)N(CC(=O)c3ccco3)c3ccccc3N(CC(=O)c3ccco3)C2=O)c1 [Compound 9f, 1,5-Bis-(2-furylcarbonylmethyl)-3-(N'-(3-(3-(carbomethoxy)propylcarbamoyloxymethyl)phenyl)ureido) -1H-1,5-benzodiazepine-2,4(3H,5H)-dione]	–	–	–
–	–	–	COC(=O)CCCNC(=O)OCc1cccc(NC(=O)NC2C(=O)N(CC(=O)N3CCSC3)c3ccccc3N(CC(=O)N3CCSC3)C2=O)c1 [Compound 9b, 1,5-Bis-(thiazolidinecarbonylmethyl)-3-(N'-(3-(3-(carbomethoxy)propylcarbamoyloxymethyl)phenyl)ureido)-1H-1,5-benzodiazepine-2,4(3H,5H)-dione]	7.85	6.92	6.44
8.52	8.15	6.38	COC(=O)CCCNC(=O)OCc1cccc(NC(=O)NC2C(=O)N(CC(=O)c3cccs3)c3ccccc3N(CC(=O)c3cccs3)C2=O)c1 [Compound 9g]	–	–	–
8.40	7.70	5.90	COC(=O)CCCNC(=O)OCc1cccc(NC(=O)NC2C(=O)N(CC(=O)C3CC3)c3ccccc3N(CC(=O)C3CC3)C2=O)c1 [Compound 9h, 1,5-Bis-(cyclopropylcarbonylmethyl)-3-(N'-(3-(3-(carbomethoxy)propylcarbamoyloxymethyl)phenyl)ureido)-1H-1,5-benzodiazepine-2,4(3H,5H)-dione]	–	–	–

SMILES	pIC50 (gastrin receptor; [1])	pIC50 (CCK-B receptor; [2])	pIC50 (CCK-A receptor; [3])	pIC50 (gastrin receptor)	pIC50 (CCK-B receptor)	pIC50 (CCK-A receptor)
Cc1cccc(NC(=O)NC2C(=O)N(CC(=O)OC(C)(C)C)c3ccccc3N(CC(=O)OC(C)(C)C)C2=O)c1 [Compound 8s, 1,5-Bis-(t-butoxycarbonylmethyl)-3-(N'-(m-tolyl)ureido)-1H-1,5-benzodiazepine-2,4(3H,5H)-dione]	8.70	8.70	7.00	–	–	–
CC(C)(C)OC(=O)CN1C(=O)C(NC(=O)Nc2cccc(COC(=O)NCCCC(=O)OCc3ccccc3)c2)C(=O)N(CC(=O)OC(C)(C)C)c2ccccc21 [Compound 10s, 1,5-Bis-(tert-butoxycarbonylmethyl)-3-(N'-(3-(3-(benzyloxycarbonyl)propylcarbamoyloxymethyl)phenyl)-ureido)-1H-1,5-benzodiazepine-2,4(3H,5H)-dione]	8.15	8.40	> 7.00	–	–	–
